Measurements taken from US12708116B2, “Herbicidal compositions comprising 2,4-D” (BASF SE, priority 2023, dated 2026).

Columns and labels:
Test in all cases: Post-emergence application in field trials
GLXMA = type: in vivo, Glycine max; conditions: Example 4; 21 DAT; g ai/ha A-1 12.5, B-5 1066; growth stage 13; height 5-8 cm
CYPES = conditions: 21 DAT, water volume 140 l/ha
AMARE = type: in vivo, Amaranthus retroflexus; conditions: 8 DAT; g ai/ha A-1 25, B-5 1066; growth stage 19; height 10-20 cm; water volume 140 l/ha
PORPI = type: in vivo; conditions: 8 DAT; g ai/ha A-1 25, B-5 1066; height 2-8 cm; water volume 140 l/ha
AMAPA = test system: AMAPA
ECHCG = type: in vivo, Echinochloa crus-galli
DIGSA = test system: DIGSA
SETVI = type: in vivo, Setaria viridis; conditions: 15 DAT; g ai/ha A-1 12.5, B-5 1066, C-10 840; growth stage 13-19; height 2-18 cm; water volume 140 l/ha
DATST = test system: DATST
AMATU = type: in vivo, Amaranthus tuberculatos; conditions: 8 DAT; g ai/ha A-1 12.5, B-5 1066; growth stage 19; height 10-20 cm; water volume 140 l/ha
SETVE = conditions: growth stage 21-23
ZEAMX = conditions: growth stage 15-16
HORVW = conditions: growth stage 23-29, height 20-25 cm

## C[N+](C)(C)CCO.O=C([O-])COc1ccc(Cl)cc1Cl [B-5, 2,4-D choline]
GLXMA
  % Herbicidal activity: 55%
CYPES; g ai/ha A-1 12.5, B-5 1066, C-11 655
  % Herbicidal activity: 0%
CYPES; g ai/ha A-1 50, B-5 1066, C-11 655
  % Herbicidal activity: 0%
CYPES; g ai/ha A-1 50, B-5 1066
  % Herbicidal activity: 0%
AMARE
  % Herbicidal activity: 83%
PORPI
  % Herbicidal activity: 50%
AMAPA; 13 DAT, g ai/ha A-1 25, B-5 1066, growth stage 16, height 15-25 cm, water volume 187 l/ha
  % Herbicidal activity: 53%
AMAPA; 14 DAT, g ai/ha A-1 12.5, B-5 1066, C-10 840, growth stage 12-24, height 5-30 cm, water volume 140 l/ha
  % Herbicidal activity: 66%
AMAPA; 14 DAT, g ai/ha A-1 25, B-5 1066, C-10 840, growth stage 12-24, height 5-30 cm, water volume 140 l/ha
  % Herbicidal activity: 66%
AMAPA; 19 DAT, g ai/ha A-1 12.5, B-5 1066, growth stage 16, height 15-25 cm, water volume 187 l/ha
  % Herbicidal activity: 55%
AMAPA; 19 DAT, g ai/ha A-1 25, B-5 1066, growth stage 16, height 15-25 cm, water volume 187 l/ha
  % Herbicidal activity: 55%
AMAPA; 19 DAT, g ai/ha A-1 50, B-5 1066, growth stage 16, height 15-25 cm, water volume 187 l/ha
  % Herbicidal activity: 55%
AMAPA; 21 DAT, g ai/ha A-1 12.5, B-5 1066, growth stage 12-28, height 7-20 cm, water volume 140 l/ha
  % Herbicidal activity: 63%
AMAPA; 21 DAT, g ai/ha A-1 50, B-5 1066, height 5-23 cm, water volume 140 l/ha
  % Herbicidal activity: 78%
ECHCG; 13 DAT, g ai/ha A-1 12.5, B-5 1066, C-10 840, growth stage 21-26, height 15-30 cm, water volume 187 l/ha
  % Herbicidal activity: 0%
ECHCG; 13 DAT, g ai/ha A-1 25, B-5 1066, C-10 840, growth stage 21-26, height 15-30 cm, water volume 187 l/ha
  % Herbicidal activity: 0%
ECHCG; 13 DAT, g ai/ha A-1 50, B-5 1066, C-10 840, growth stage 21-26, height 15-30 cm, water volume 187 l/ha
  % Herbicidal activity: 0%
ECHCG; Example 4, 21 DAT, g ai/ha A-1 12.5, B-5 1066, growth stage 23-30, height 15-20 cm
  % Herbicidal activity: 0%
ECHCG; Example 6, 7 DAT, g ai/ha A-1 12.5, B-5 1066, C-11 400, growth stage 23-30, height 15-20 cm
  % Herbicidal activity: 0%
ECHCG; Example 6, 28 DAT, g ai/ha A-1 12.5, B-5 1066, C-11 400, growth stage 23-30, height 15-20 cm
  % Herbicidal activity: 0%
ECHCG; Example 8, 7 DAT, g ai/ha A-1 12.5, B-5 1066, C-12 252, growth stage 23-30, height 15-20 cm
  % Herbicidal activity: 0%
ECHCG; Example 8, 21 DAT, g ai/ha A-1 12.5, B-5 1066, C-12 252, growth stage 23-30, height 15-20 cm
  % Herbicidal activity: 0%
ECHCG; Example 8, 28 DAT, g ai/ha A-1 12.5, B-5 1066, C-12 252, growth stage 23-30, height 15-20 cm
  % Herbicidal activity: 0%
ECHCG; Example 10, 21 DAT, g ai/ha A-1 12.5, B-5 1066, C-4 12.5, growth stage 23-30, height 15-20 cm
  % Herbicidal activity: 0%
DIGSA; 14 DAT, g ai/ha A-1 12.5, B-5 1066, height 2-8 cm, water volume 140 l/ha
  % Herbicidal activity: 0%
DIGSA; 14 DAT, g ai/ha A-1 25, B-5 1066, height 2-8 cm, water volume 140 l/ha
  % Herbicidal activity: 0%
DIGSA; 14 DAT, g ai/ha A-1 50, B-5 1066, height 2-8 cm, water volume 140 l/ha
  % Herbicidal activity: 0%
DIGSA; 15 DAT, g ai/ha A-1 12.5, B-5 1066, C-10 840, growth stage 13-19, height 2-13 cm, water volume 140 l/ha
  % Herbicidal activity: 27%
DIGSA; 21 DAT, g ai/ha A-1 12.5, B-5 1066, C-11 655, height 2-8 cm, water volume 140 l/ha
  % Herbicidal activity: 0%
DIGSA; 21 DAT, g ai/ha A-1 12.5, B-5 1066, height 2-8 cm, water volume 140 l/ha
  % Herbicidal activity: 0%
DIGSA; 21 DAT, g ai/ha A-1 25, B-5 1066, C-11 655, height 2-8 cm, water volume 140 l/ha
  % Herbicidal activity: 0%
DIGSA; 21 DAT, g ai/ha A-1 25, B-5 1066, height 2-8 cm, water volume 140 l/ha
  % Herbicidal activity: 0%
DIGSA; 21 DAT, g ai/ha A-1 50, B-5 1066, C-11 655, height 2-8 cm, water volume 140 l/ha
  % Herbicidal activity: 0%
DIGSA; 21 DAT, g ai/ha A-1 50, B-5 1066, height 2-8 cm, water volume 140 l/ha
  % Herbicidal activity: 0%
DIGSA; Example 6, 7 DAT, g ai/ha A-1 12.5, B-5 1066, C-11 400, growth stage 21-22, height 15-20 cm
  % Herbicidal activity: 20%
DIGSA; Example 6, 21 DAT, g ai/ha A-1 12.5, B-5 1066, C-11 400, growth stage 21-22, height 15-20 cm
  % Herbicidal activity: 20%
SETVI
  % Herbicidal activity: 27%
DATST; Example 4, 7 DAT, g ai/ha A-1 12.5, B-5 1066
  % Herbicidal activity: 35%
DATST; Example 6, 21 DAT, g ai/ha A-1 12.5, B-5 1066, C-11 400
  % Herbicidal activity: 40%
AMATU
  % Herbicidal activity: 83%
SETVE; Example 4, 21 DAT, g ai/ha A-1 12.5, B-5 1066, height 8-16 cm
  % Herbicidal activity: 25%
SETVE; Example 6, 7 DAT, g ai/ha A-1 12.5, B-5 1066, C-11 400, height 10-15 cm
  % Herbicidal activity: 15%
SETVE; Example 6, 21 DAT, g ai/ha A-1 12.5, B-5 1066, C-11 400, height 10-15 cm
  % Herbicidal activity: 0%
ZEAMX; Example 4, 7 DAT, g ai/ha A-1 18, B-5 1066, height 50-60 cm
  % Herbicidal activity: 7%
ZEAMX; Example 4, 21 DAT, g ai/ha A-1 12.5, B-5 1066, height 50-60 cm
  % Herbicidal activity: 10%
ZEAMX; Example 6, 7 DAT, g ai/ha A-1 12.5, B-5 1066, C-11 400, height 25-30 cm
  % Herbicidal activity: 0%
ZEAMX; Example 6, 28 DAT, g ai/ha A-1 12.5, B-5 1066, C-11 400, height 50-60 cm
  % Herbicidal activity: 0%
ZEAMX; Example 8, 28 DAT, g ai/ha A-1 12.5, B-5 1066, C-12 252, height 50-60 cm
  % Herbicidal activity: 0%
HORVW; Example 4, 21 DAT, g ai/ha A-1 12.5, B-5 1066
  % Herbicidal activity: 0%
HORVW; Example 6, 28 DAT, g ai/ha A-1 12.5, B-5 1066, C-11 400
  % Herbicidal activity: 0%
HORVW; Example 8, 21 DAT, g ai/ha A-1 12.5, B-5 1066, C-12 252
  % Herbicidal activity: 0%
HORVW; Example 10, 21 DAT, g ai/ha A-1 12.5, B-5 1066, C-4 12.5
  % Herbicidal activity: 0%
